# Legend:
# Assay type in all cases: physicochemical
# [1] = Long-term storage stability, Comparative Example 2 mixture (no buffer); conditions: Comparative Example 2 formulation
# Protocol: A mixture of fenoxaprop p-ethyl, mefenpyr diethyl, pyrasulfotole, and fillers was prepared in similar manner as in Table 1 but without a buffer system of the invention (see Table 3).
# (§1) The mixture was tested for long-term storage stability by subjecting separate samples to different temperatures for eight weeks.
# [2] = Long-term storage stability, Comparative Example 1 emulsifiable concentrate (triethanolamine buffer); conditions: Comparative Example 1 formulation
# Protocol: An emulsifiable concentrate of fenoxaprop-ethyl, mefenpyr diethyl, and pyrasulfotole and fillers was prepared. Triethanolamine, a buffer capable of hydrogen bonding, was selected as the buffer. The mixture of Table 1 was prepared by mixing the liquid ingredients, then the solid ingredients at 50° C.
# as §1
# [3] = Long-term storage stability, Comparative Example 3 emulsifiable concentrate (triethylamine buffer); conditions: Comparative Example 3 formulation
# Protocol: An emulsifiable concentrate of fenoxaprop p-ethyl, mefenpyr diethyl, and pyrasulfotole was prepared. Triethylamine, a buffer that is not capable of complexing or forming a coordination complex or hydrogen bonding, was selected as the buffer. The mixture of Table 5 was prepared by mixing the liquid ingredients, then the solid ingredients at 50° C.
# as §1
# [4] = Long-term storage stability, Example 4 emulsifiable concentrate with bromoxynil mixed esters (triethanolamine buffer); conditions: Example 4 formulation
# Protocol: Triethanolamine, a buffer capable of complexing was selected as the buffer. The mixture of Table 7 was prepared by mixing the liquid ingredients, then the solid ingredients at 50° C.
# as §1
# [5] = Long-term storage stability, Example 8 mixture (triethanolamine, without DBSCa); conditions: Example 8 formulation
# Protocol: as §1
# [6] = Long-term storage stability, Comparative Example 6 mixture with bromoxynil mixed esters (no buffer); conditions: Comparative Example 6 formulation
# Protocol: as §1
# [7] = Long-term storage stability, Comparative Example 5 emulsifiable concentrate with bromoxynil mixed esters (triethylamine buffer); conditions: Comparative Example 5 formulation
# Protocol: An emulsifiable concentrate of fenoxaprop p-ethyl, mefenpyr diethyl, pyrasulfotole and bromoxynil mixed esters was prepared. Triethylamine, a buffer that is not capable of complexing was selected as the buffer. The mixture of Table 9 was prepared by mixing the liquid ingredients, then the solid ingredients at 50° C.
# as §1
# [8] = Long-term storage stability 1 year room temperature, Example 7 emulsifiable concentrate (triethanolamine + DBSCa); conditions: Example 7 formulation; 1 year @ room temp
# Protocol: In this example, an emulsifiable concentrate of fenoxaprop p-ethyl, mefenpyr diethyl, pyrasulfotole and bromoxynil mixed esters was prepared. Triethanolamine, a buffer that is capable of hydrogen bonding, was selected as the buffer. Dodecylbenzenesulfontate calcium, also known as DBSCa was also used to provide a calcium cation for the complex. The mixture of Table 13 was prepared by mixing the liquid ingredients, then the solid ingredients at 50° C.
# The mixture was tested for long-term storage stability by subjecting separate samples to room temperatures for 1 year.
# [9] = 8 weeks @ 40° C., listed as pyrasulfotole
smiles,measurement,setting,value
"CCOC(=O)[C@@H](C)Oc1ccc(Oc2nc3ccc(Cl)cc3o2)cc1 [Fenoxaprop p-ethyl, fenoxaprop p-ethyl]",Avg. Wt % active ingredient,[1]; 8 weeks @ 0° C.,8.20 Wt %
same,Avg. Wt % active ingredient,[1]; 8 weeks @ 40° C.,2.64 Wt %
same,change from 0° C.,[1]; 8 weeks @ 40° C.,−67.80%
same,Avg. Wt % active ingredient,[1]; 8 weeks @ 50° C.,0.91 Wt %
same,change from 0° C.,[1]; 8 weeks @ 50° C.,−88.90%
same,Avg. Wt % active ingredient,[1]; 8 weeks @ room temp.,6.49 Wt %
same,change from 0° C.,[1]; 8 weeks @ room temp.,−20.85%
same,Avg. Wt % active ingredient,[2]; 8 weeks @ 0° C.,9.41 Wt %
same,Avg. Wt % active ingredient,[2]; 8 weeks @ 40° C.,9.00 Wt %
same,change from 0° C.,[2]; 8 weeks @ 40° C.,−4.31%
same,Avg. Wt % active ingredient,[2]; 8 weeks @ 50° C.,8.58 Wt %
same,change from 0° C.,[2]; 8 weeks @ 50° C.,−8.83%
same,Avg. Wt % active ingredient,[2]; 8 weeks @ room temp.,9.34 Wt %
same,change from 0° C.,[2]; 8 weeks @ room temp.,−0.69%
same,Avg. Wt % active ingredient,[3]; 8 weeks @ 0° C.,2.93 Wt %
same,Avg. Wt % active ingredient,[3]; 8 weeks @ 40° C.,2.80 Wt %
same,change from 0° C.,[3]; 8 weeks @ 40° C.,−4.37%
same,Avg. Wt % active ingredient,[3]; 8 weeks @ 50° C.,2.74 Wt %
same,change from 0° C.,[3]; 8 weeks @ 50° C.,−6.39%
same,Avg. Wt % active ingredient,[3]; 8 weeks @ room temp.,2.89 Wt %
same,change from 0° C.,[3]; 8 weeks @ room temp.,−1.19%
same,Avg. Wt % active ingredient,[4]; 8 weeks @ 0° C.,4.32 Wt %
same,Avg. Wt % active ingredient,[4]; 8 weeks @ 40° C.,3.96 Wt %
same,change from 0° C.,[4]; 8 weeks @ 40° C.,−8.25%
same,Avg. Wt % active ingredient,[5]; 8 weeks @ 0° C.,4.33 Wt %
same,Avg. Wt % active ingredient,[5]; 8 weeks @ 40° C.,4.00 Wt %
same,change from 0° C.,[5]; 8 weeks @ 40° C.,−5.75%
same,Avg. Wt % active ingredient,[6]; 8 weeks @ 0° C.,6.97 Wt %
same,Avg. Wt % active ingredient,[6]; 8 weeks @ 40° C.,2.34 Wt %
same,change from 0° C.,[6]; 8 weeks @ 40° C.,−66.43%
same,Avg. Wt % active ingredient,[6]; 8 weeks @ room temp.,6.15 Wt %
same,change from 0° C.,[6]; 8 weeks @ room temp.,−11.76%
same,Avg. Wt % active ingredient,[7]; 8 weeks @ 0° C.,4.30 Wt %
same,Avg. Wt % active ingredient,[7]; 8 weeks @ 40° C.,4.33 Wt %
same,change from 0° C.,[7]; 8 weeks @ 40° C.,0.68%
same,Avg. Wt % active ingredient,[7]; 8 weeks @ room temp.,4.33 Wt %
same,change from 0° C.,[7]; 8 weeks @ room temp.,0.07%
same,Avg. Wt % active ingredient,[8],7.95 Wt %
same,Change from expected,[8],−0.625%
"CCOC(=O)C1=NN(c2ccc(Cl)cc2Cl)C(C)(C(=O)OCC)C1 (stereo not drawn) [Mefenpyr diethyl, mefenpyr diethyl]",Avg. Wt % active ingredient,[1]; 8 weeks @ 0° C.,3.81 Wt %
same,Avg. Wt % active ingredient,[1]; 8 weeks @ 40° C.,3.85 Wt %
same,change from 0° C.,[1]; 8 weeks @ 40° C.,−1.05%
same,Avg. Wt % active ingredient,[1]; 8 weeks @ 50° C.,3.97 Wt %
same,change from 0° C.,[1]; 8 weeks @ 50° C.,−4.20%
same,Avg. Wt % active ingredient,[1]; 8 weeks @ room temp.,4.01 Wt %
same,change from 0° C.,[1]; 8 weeks @ room temp.,+5.24%
same,Avg. Wt % active ingredient,[2]; 8 weeks @ 0° C.,3.77 Wt %
same,Avg. Wt % active ingredient,[2]; 8 weeks @ 40° C.,3.74 Wt %
same,change from 0° C.,[2]; 8 weeks @ 40° C.,−0.65%
same,Avg. Wt % active ingredient,[2]; 8 weeks @ 50° C.,3.72 Wt %
same,change from 0° C.,[2]; 8 weeks @ 50° C.,−1.17%
same,Avg. Wt % active ingredient,[2]; 8 weeks @ room temp.,3.76 Wt %
same,change from 0° C.,[2]; 8 weeks @ room temp.,−0.17%
same,Avg. Wt % active ingredient,[3]; 8 weeks @ 0° C.,3.80 Wt %
same,Avg. Wt % active ingredient,[3]; 8 weeks @ 40° C.,3.72 Wt %
same,change from 0° C.,[3]; 8 weeks @ 40° C.,−2.10%
same,Avg. Wt % active ingredient,[3]; 8 weeks @ 50° C.,3.73 Wt %
same,change from 0° C.,[3]; 8 weeks @ 50° C.,−1.93%
same,Avg. Wt % active ingredient,[3]; 8 weeks @ room temp.,3.77 Wt %
same,change from 0° C.,[3]; 8 weeks @ room temp.,−0.87%
same,Avg. Wt % active ingredient,[4]; 8 weeks @ 0° C.,1.82 Wt %
same,Avg. Wt % active ingredient,[4]; 8 weeks @ 40° C.,1.80 Wt %
same,change from 0° C.,[4]; 8 weeks @ 40° C.,−0.92%
same,Avg. Wt % active ingredient,[5]; 8 weeks @ 0° C.,1.74 Wt %
same,Avg. Wt % active ingredient,[5]; 8 weeks @ 40° C.,1.72 Wt %
same,change from 0° C.,[5]; 8 weeks @ 40° C.,−1.29%
same,Avg. Wt % active ingredient,[6]; 8 weeks @ 0° C.,2.98 Wt %
same,Avg. Wt % active ingredient,[6]; 8 weeks @ 40° C.,3.01 Wt %
same,change from 0° C.,[6]; 8 weeks @ 40° C.,1.01%
same,Avg. Wt % active ingredient,[6]; 8 weeks @ room temp.,3.00 Wt %
same,change from 0° C.,[6]; 8 weeks @ room temp.,0.67%
same,Avg. Wt % active ingredient,[7]; 8 weeks @ 0° C.,1.73 Wt %
same,Avg. Wt % active ingredient,[7]; 8 weeks @ 40° C.,1.75 Wt %
same,change from 0° C.,[7]; 8 weeks @ 40° C.,0.88%
same,Avg. Wt % active ingredient,[7]; 8 weeks @ room temp.,1.75 Wt %
same,change from 0° C.,[7]; 8 weeks @ room temp.,0.77%
"Cc1nn(C)c(O)c1C(=O)c1ccc(C(F)(F)F)cc1S(C)(=O)=O [Pyrasulfotole, pyrasulfotole]",Avg. Wt % active ingredient,[1]; 8 weeks @ 0° C.,4.76 Wt %
same,Avg. Wt % active ingredient,[1]; 8 weeks @ 40° C.,4.69 Wt %
same,change from 0° C.,[1]; 8 weeks @ 40° C.,−1.47%
same,Avg. Wt % active ingredient,[1]; 8 weeks @ 50° C.,4.54 Wt %
same,change from 0° C.,[1]; 8 weeks @ 50° C.,−4.62%
same,Avg. Wt % active ingredient,[1]; 8 weeks @ room temp.,4.75 Wt %
same,change from 0° C.,[1]; 8 weeks @ room temp.,−0.21%
same,Avg. Wt % active ingredient,[2]; 8 weeks @ 0° C.,5.57 Wt %
same,Avg. Wt % active ingredient,[2]; 8 weeks @ 40° C.,5.53 Wt %
same,change from 0° C.,[2]; 8 weeks @ 40° C.,−0.82%
same,Avg. Wt % active ingredient,[2]; 8 weeks @ 50° C.,5.51 Wt %
same,change from 0° C.,[2]; 8 weeks @ 50° C.,−1.12%
same,Avg. Wt % active ingredient,[2]; 8 weeks @ room temp.,5.67 Wt %
same,change from 0° C.,[2]; 8 weeks @ room temp.,1.71%
same,Avg. Wt % active ingredient,[3]; 8 weeks @ 0° C.,5.38 Wt %
same,Avg. Wt % active ingredient,[3]; 8 weeks @ 40° C.,5.43 Wt %
same,change from 0° C.,[3]; 8 weeks @ 40° C.,0.85%
same,Avg. Wt % active ingredient,[3]; 8 weeks @ 50° C.,5.60 Wt %
same,change from 0° C.,[3]; 8 weeks @ 50° C.,4.07%
same,Avg. Wt % active ingredient,[3]; 8 weeks @ room temp.,5.46 Wt %
same,change from 0° C.,[3]; 8 weeks @ room temp.,1.51%
same,Avg. Wt % active ingredient,[4]; 8 weeks @ 0° C.,1.42 Wt %
same,Avg. Wt % active ingredient,[4]; 8 weeks @ 40° C.,1.40 Wt %
same,change from 0° C.,[4]; 8 weeks @ 40° C.,−1.30%
same,change from 0° C.,[4]; [9],−1.30%
same,Avg. Wt % active ingredient,[5]; 8 weeks @ 0° C.,1.74 Wt %
same,Avg. Wt % active ingredient,[5]; 8 weeks @ 40° C.,1.65 Wt %
same,change from 0° C.,[5]; 8 weeks @ 40° C.,−4.81%
same,Avg. Wt % active ingredient,[6]; 8 weeks @ 0° C.,3.26 Wt %
same,Avg. Wt % active ingredient,[6]; 8 weeks @ 40° C.,2.81 Wt %
same,change from 0° C.,[6]; 8 weeks @ 40° C.,−13.8%
same,Avg. Wt % active ingredient,[6]; 8 weeks @ room temp.,3.01 Wt %
same,change from 0° C.,[6]; 8 weeks @ room temp.,−7.67%
same,Avg. Wt % active ingredient,[7]; 8 weeks @ 0° C.,1.38 Wt %
same,Avg. Wt % active ingredient,[7]; 8 weeks @ 40° C.,1.26 Wt %
same,change from 0° C.,[7]; 8 weeks @ 40° C.,−9.04%
same,change from 0° C.,[7]; [9],−9.04%
same,Avg. Wt % active ingredient,[7]; 8 weeks @ room temp.,1.30 Wt %
same,change from 0° C.,[7]; 8 weeks @ room temp.,−5.80%
same,Avg. Wt % active ingredient,[8],3.14 Wt %
same,Change from expected,[8],−3.083%

# Source: US8642508B2, “Complex for use in stabilizing herbicidal compositions and methods for synthesizing and using” (Bayer Cropscience LP, priority 2005, dated 2014)
